One compound from US20210221822A1, “TRICYCLIC DERIVATIVES INHIBITOR, PREPARATION METHOD, AND APPLICATIONS THEREOF” (Jiangsu Hansoh Pharmaceutical Group Co., Ltd., priority 2018, published 2021) can be followed below.

Assay [1] concerns PI3Kα mutant cancer cells HGC-27 (E542K). The experiment in a line: Cell Titer-Glo proliferation inhibition, HGC-27. In kind it is cell-based. The conditions noted are these: Homo sapiens, 48 to 96 hours. As to the method: (§1) Experimental method: The proliferation inhibitory effect of the compounds of the examples on PI3Kα mutant cancer cell lines HCC1954, HGC-27 and MKN1 was determined by Cell Titer-Glo method. The cell lines were cultured in RPMI 1640 medium (Gibco #22400089) containing 10% FBS (Gibco #10091148) and 1% P/S (Hyclone #SV30010) at 37° C. and 5% CO2. Before the experiment, the cells were collected and counted, and then the cell density was adjusted. The cells were inoculated in a white 96-well plate (Corning #3610) at a density of 1000 to 10000 cells/well, and incubated in an incubator at 37° C., 5% CO2 overnight. The compound solution of different concentrations was added, and corresponding vehicle control was set at the same time. The cell plate was further incubated in an incubator at 37° C., 5% CO2 for 48 to 96 hours. The cell plate and its content were equilibrated to room temperature. 20 to 100 μL of Cell Titer-Glo solution (Promega #G7573) was added to each well, and the plate was shaked well and incubated at room temperature in the dark for 5 to 30 minutes. The chemiluminescence value was measured by the BioTek SynergyH1 microplate reader.
(§2) The percentage inhibition data of the well treated by the compounds of the examples was calculated through the vehicle control well on the plate {% inhibition rate=100−(test compound value/vehicle control value)×100}. The IC50 value was calculated by fitting the data of different concentrations and corresponding percentage inhibition rates to a four-parameter nonlinear logic formula with GraphPad prism.
(ATP-based viability assays read luminescence as a measure of living cells.)

Assay [2] concerns PI3Kα mutant cancer cells HCC1954 (H1047R). The assay is described as follows: Cell Titer-Glo proliferation inhibition, HCC1954. The conditions noted are these: Homo sapiens, 48 to 96 hours. In kind it is cell-based. The protocol: as §1, §2
The target in assay [3] is T1, PI3Kβ (Homo sapiens, UniProt P42338).
T1 construct: purchased Carna 11-102
T1 sequence (P42338 whole entry): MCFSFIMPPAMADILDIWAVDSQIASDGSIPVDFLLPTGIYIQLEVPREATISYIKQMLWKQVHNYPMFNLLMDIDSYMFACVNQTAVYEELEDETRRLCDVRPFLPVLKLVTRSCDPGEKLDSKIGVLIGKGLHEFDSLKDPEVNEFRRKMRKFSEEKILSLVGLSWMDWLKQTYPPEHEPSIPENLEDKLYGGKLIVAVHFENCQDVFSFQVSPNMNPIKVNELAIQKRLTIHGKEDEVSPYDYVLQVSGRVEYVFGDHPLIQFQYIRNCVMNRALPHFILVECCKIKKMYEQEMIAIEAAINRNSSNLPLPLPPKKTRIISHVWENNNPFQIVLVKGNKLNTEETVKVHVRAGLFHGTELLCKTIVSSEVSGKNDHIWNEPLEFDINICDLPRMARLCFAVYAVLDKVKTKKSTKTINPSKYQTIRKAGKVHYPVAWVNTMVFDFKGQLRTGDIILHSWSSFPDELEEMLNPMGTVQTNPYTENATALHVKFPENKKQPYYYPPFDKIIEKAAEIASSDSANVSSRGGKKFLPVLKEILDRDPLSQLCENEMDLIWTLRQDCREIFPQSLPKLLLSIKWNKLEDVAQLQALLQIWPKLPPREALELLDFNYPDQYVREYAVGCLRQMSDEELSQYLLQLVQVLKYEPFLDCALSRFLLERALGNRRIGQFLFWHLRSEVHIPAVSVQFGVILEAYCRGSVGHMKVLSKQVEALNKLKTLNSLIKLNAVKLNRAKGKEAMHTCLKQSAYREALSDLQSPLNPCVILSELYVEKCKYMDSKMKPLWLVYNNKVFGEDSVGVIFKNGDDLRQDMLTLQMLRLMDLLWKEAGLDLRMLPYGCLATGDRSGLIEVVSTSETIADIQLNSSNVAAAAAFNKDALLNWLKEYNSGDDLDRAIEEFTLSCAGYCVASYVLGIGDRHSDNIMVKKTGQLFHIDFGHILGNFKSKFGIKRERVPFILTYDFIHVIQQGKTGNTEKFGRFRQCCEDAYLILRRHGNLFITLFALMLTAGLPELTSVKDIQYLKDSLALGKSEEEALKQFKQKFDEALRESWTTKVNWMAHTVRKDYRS
T1 sequence (P27986 whole entry partner): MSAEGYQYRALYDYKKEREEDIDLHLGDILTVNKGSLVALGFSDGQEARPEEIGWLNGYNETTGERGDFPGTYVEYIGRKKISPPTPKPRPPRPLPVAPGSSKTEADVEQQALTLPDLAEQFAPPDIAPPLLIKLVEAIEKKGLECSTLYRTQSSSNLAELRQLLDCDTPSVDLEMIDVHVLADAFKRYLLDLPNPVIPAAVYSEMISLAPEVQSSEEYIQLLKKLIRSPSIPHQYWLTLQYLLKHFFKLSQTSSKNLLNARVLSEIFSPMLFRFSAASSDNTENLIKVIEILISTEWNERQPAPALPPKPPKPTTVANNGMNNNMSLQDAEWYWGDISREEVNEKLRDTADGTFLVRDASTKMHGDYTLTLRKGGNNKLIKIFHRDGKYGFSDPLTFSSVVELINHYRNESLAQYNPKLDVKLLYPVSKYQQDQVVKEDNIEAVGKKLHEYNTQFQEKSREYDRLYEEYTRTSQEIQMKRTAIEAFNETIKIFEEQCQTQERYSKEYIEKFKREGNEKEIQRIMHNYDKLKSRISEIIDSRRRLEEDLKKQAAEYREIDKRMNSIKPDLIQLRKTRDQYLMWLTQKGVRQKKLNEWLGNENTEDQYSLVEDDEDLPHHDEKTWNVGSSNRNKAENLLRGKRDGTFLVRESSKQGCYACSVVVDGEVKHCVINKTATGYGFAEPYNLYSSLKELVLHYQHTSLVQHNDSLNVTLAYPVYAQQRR
The experiment in a line: ADP-Glo lipid kinase assay, PI3Kβ kinase activity. The class given is biochemical. The settings on record: 0.4 nM enzyme, 90 min, 100 μM ATP. In outline:
(§3)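 ADP-Glo luminescence measured ADP formed by PI3Kα, β, γ or δ (0.1-2 nM working solution) with PIP2:3PS (50 μM added solution) and ATP in HEPES/MgCl2/NaCl/BSA buffer, 90 to 120 min at room temperature. % inhibition was set against DMSO and no-kinase controls, and IC50 came from a four-parameter fit.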
In general terms: In ADP-Glo the light output rises with the ADP produced.

The target in assay [4] is T2, PI3Kα (Homo sapiens, UniProt P42336).
T2 construct: purchased Promega V1721
T2 sequence (P42336 whole entry): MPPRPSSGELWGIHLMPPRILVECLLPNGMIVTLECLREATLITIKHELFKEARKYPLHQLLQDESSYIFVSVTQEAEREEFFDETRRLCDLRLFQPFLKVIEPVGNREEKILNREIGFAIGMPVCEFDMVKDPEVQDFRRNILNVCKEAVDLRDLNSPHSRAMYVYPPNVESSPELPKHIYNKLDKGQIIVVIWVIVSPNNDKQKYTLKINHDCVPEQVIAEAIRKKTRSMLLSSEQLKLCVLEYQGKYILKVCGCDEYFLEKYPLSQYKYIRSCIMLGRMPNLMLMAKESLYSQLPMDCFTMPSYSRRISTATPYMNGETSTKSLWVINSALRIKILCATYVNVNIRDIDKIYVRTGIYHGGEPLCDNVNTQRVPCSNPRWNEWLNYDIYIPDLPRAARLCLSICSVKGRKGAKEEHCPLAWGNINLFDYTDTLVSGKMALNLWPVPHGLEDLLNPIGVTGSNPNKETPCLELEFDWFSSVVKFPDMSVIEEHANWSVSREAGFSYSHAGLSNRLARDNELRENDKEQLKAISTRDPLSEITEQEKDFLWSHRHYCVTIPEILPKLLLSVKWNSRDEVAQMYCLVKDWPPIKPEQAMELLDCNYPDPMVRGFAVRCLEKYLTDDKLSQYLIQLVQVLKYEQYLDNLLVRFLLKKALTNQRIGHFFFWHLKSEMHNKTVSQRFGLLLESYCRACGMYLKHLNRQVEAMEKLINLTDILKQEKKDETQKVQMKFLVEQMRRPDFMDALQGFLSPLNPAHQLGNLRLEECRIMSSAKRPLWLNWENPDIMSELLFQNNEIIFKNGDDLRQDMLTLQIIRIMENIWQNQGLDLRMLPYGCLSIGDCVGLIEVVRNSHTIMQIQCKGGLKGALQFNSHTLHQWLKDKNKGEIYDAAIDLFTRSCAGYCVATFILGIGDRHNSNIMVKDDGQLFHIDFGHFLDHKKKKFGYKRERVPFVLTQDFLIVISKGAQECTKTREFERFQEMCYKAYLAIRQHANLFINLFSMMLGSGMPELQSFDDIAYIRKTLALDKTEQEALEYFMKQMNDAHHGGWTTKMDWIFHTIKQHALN
T2 sequence (P27986 whole entry partner): as the sequence (P27986 whole entry partner) above
The experiment in a line: ADP-Glo lipid kinase assay, PI3Kα kinase activity. In kind it is biochemical. The procedure, abridged:
as §3

In assay [5] the test system is PI3Kα mutant cancer cells MKN1 (E545K). The assay is described as follows: Cell Titer-Glo proliferation inhibition, MKN1. The class given is cell-based. The conditions noted are these: Homo sapiens, MKN-1, 48 to 96 hours. The protocol: as §1, §2
Assay [6] has as its target T3, PI3Kγ (Homo sapiens, UniProt P48736).
T3 construct: purchased Thermofisher PV4786
The experiment in a line: ADP-Glo lipid kinase assay, PI3Kγ kinase activity. The settings on record: 0.4 nM enzyme, 120 min, 50 μM ATP. In kind it is biochemical. The procedure, abridged:
as §3

The test system of assay [7] is HCC1954 cells. The experiment in a line: In vivo efficacy test, HCC1954 tumor-bearing nude mice. Details: species or system BALB/c nude mice. The settings on record: HCC1954 xenograft, oral 10 mg/kg once/day, 21 days (Example 51: 19 days). As to the method:
a. HCC1954 cells were taken from the cell bank, and resuscitated in RPMI-1640 medium (RPMI-1640+10% FBS+1% SP). The resuscitated cells were placed in a cell culture flask (the cell type, date, operator's name and the like were marked on the wall of the flask), and cultured in a CO2 incubator (the temperature of the incubator was 37° C., and the CO2 concentration was 5%).
c. The cultured cells were collected and counted with the automatic cell counter. The cells were resuspended with PBS and matrigel according to the counting results to prepare a cell suspension (density: 5×10^7/mL), which was placed in an ice box for later use.
d. The test nude mice were subjected to inoculation successively (0.1 mL of cell suspension was inoculated to each mouse).
a. According to the tumor growth, the tumor was measured on 14 to 18 days after the inoculation, and the tumor size was calculated.
Tumor volume calculation: tumor volume (mm^3)=length (mm)×width (mm)×width (mm)/2
c. According to the grouping results, the test compounds were administered (administration mode: oral administration; administration dose: 10 mg/kg;
administration volume: 10 mL/kg; administration frequency: once/day; administration cycle: 21 days; vehicle: 0.5% CMC/1% Tween 80).
d. Tumor volume and body weight were measured twice a week after the administration of test compounds began.
f. […]

T3 sequence (P48736 whole entry): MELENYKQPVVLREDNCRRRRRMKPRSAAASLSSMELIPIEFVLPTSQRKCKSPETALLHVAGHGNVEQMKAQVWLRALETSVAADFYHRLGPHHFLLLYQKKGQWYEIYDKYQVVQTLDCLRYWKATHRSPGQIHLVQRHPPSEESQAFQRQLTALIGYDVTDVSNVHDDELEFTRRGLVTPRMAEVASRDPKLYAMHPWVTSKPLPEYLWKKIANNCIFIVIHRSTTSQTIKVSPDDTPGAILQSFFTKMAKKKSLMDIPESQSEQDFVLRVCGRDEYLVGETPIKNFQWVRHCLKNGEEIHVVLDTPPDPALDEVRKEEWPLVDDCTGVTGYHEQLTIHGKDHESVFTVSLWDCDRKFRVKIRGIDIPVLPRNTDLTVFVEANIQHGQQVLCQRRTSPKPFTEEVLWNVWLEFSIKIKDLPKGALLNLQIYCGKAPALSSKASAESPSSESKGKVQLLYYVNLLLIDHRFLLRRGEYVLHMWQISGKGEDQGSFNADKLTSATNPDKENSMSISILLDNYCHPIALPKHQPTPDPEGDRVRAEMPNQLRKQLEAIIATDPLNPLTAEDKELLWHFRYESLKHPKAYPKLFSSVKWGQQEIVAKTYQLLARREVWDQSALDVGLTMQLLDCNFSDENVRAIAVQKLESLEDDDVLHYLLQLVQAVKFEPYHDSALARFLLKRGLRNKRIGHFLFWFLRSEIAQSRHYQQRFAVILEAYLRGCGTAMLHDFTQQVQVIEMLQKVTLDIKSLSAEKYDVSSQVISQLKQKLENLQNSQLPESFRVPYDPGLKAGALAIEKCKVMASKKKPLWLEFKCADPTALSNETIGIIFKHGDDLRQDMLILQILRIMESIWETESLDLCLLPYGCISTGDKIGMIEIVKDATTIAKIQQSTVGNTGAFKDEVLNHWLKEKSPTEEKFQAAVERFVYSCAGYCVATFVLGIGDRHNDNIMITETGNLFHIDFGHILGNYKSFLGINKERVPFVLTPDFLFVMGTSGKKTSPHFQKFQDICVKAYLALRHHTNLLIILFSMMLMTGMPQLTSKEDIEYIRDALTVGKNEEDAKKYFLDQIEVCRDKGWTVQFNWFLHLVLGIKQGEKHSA

Regarding `C[C@H](Nc1ccc2c(c1)OCCn1cc(N3C(=O)COC[C@H]3C(F)F)nc1-2)C(N)=O` [Example 68, (S)-2-((2-((S)-3-(difluoromethyl)-5-oxomorpholino)-5,6-dihydrobenzo[f]imidazo[1,2-d][1,4]oxazepin-9-yl)amino)propanamide], the IC50 amounted to 111 nM in assay [1]; 70 nM in assay [2]; 198 nM in assay [3]; 0.38 nM in assay [4] (ADP-Glo, 0.1 nM enzyme, 120 min, 50 μM ATP); 113 nM in assay [5]; 79 nM in assay [6]. For the same compound, the “Selectivity of PI3Kα vs PI3Kβ” value in assay [4] (ratio of IC50 PI3Kβ to IC50 PI3Kα) is listed as 521. For the same compound, the “Selectivity of PI3Kα vs PI3Kγ” value in assay [4] (ratio of IC50 PI3Kγ to IC50 PI3Kα) is 208. The “Selectivity of PI3Kα vs PI3Kδ” value in assay [4] (ratio of IC50 PI3Kδ to IC50 PI3Kα) was determined as 63. Further, the “Tumor growth inhibition rate” value in assay [7] is 78%.

For orientation: IC50 means the concentration that inhibits the measured activity by half.
